Biological target: T1, UGT79B31 (Petunia x hybrida, UniProt A0A2Z6FLE1)
T1 construct: full-length, cloned from petunia pollen cDNA; His/ProS2 fusion (pColdProS2) in E. coli BL21star (DE3), tag cleaved with HRV3C protease; partially purified
Assay: end-product inhibition, UPLC/PDA/QTOF/MS glucosyltransferase assay
Assay type: biochemical
Settings: read-out: Relative activity (%)
Text: end-product inhibition, UPLC/PDA/QTOF/MS glucosyltransferase assay on UGT79B31

T1 sequence (A0A2Z6FLE1 1-455): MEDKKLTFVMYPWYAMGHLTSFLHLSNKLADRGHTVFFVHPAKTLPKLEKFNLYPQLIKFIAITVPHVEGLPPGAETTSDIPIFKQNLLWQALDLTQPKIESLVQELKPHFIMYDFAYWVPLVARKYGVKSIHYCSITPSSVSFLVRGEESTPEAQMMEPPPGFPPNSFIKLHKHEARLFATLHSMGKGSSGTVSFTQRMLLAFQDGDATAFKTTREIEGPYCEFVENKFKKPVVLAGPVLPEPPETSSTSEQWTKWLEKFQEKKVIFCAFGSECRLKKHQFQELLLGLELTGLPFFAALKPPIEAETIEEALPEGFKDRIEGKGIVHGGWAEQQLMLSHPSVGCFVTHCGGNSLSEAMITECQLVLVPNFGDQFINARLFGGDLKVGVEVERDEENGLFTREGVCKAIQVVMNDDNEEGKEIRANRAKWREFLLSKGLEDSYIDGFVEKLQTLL

SMILES: O=c1ccn([C@@H]2O[C@H](COP(=O)(O)OP(=O)(O)O)[C@@H](O)[C@H]2O)c(=O)[nH]1 [UDP]
- activity at 1000 µM: 4.2 ± 0.1%
